Results reported in patent publication US12208110B2 (priority 2020, dated 2025).

Legend:
Format in all cases: cell-based
[1] = tested on: RSV-Fluc (Recombinant Respiratory Syncytial virus strain A2 containing the firefly luciferase reporter); experiment: microbe, parasite or virus in culture; conditions: human respiratory syncytial virus, NHBE, 72 h, read-out: RSV-Fluc EC50 (nM, NHBE)
[2] = tested on: SARS-CoV-2; experiment: microbe, parasite or virus in culture; conditions: Severe acute respiratory syndrome coronavirus 2, 48 h
[3] = MT4 cytotoxicity analysis (CellTiter-Glo); conditions: human, MT4 CC50 (nM)
Description: Example 79: MT4 Cytotoxicity Analysis
3-fold serially diluted compound in DMSO, ranging from 2.5 uM to 10 mM, were added by acoustic transfer (Echo) in quadruplicate into black 384-well plates at 200 nl/well. After compound addition, 40 ul MT-4 cells at 80,000/ml were added to each well using a MicroFlo liquid dispenser (BioTek, Winooski, VT) and the cells were cultured for five days at 37° C. Following the incubation, cell viability was determined by adding 35 μL of CellTiter-Glo viability reagent and mixed thoroughly using ViaFlo 384 well workstation. The mixture was incubated for at least 10 minutes at 25° C., and the luminescence signal was quantified on an EnVision plate reader.

CCCCCCCCCCCCCCCCCCOC[C@H](COP(=O)(O)OC[C@H]1O[C@@](C#N)(c2ccc3c(N)ncnn23)[C@H](O)[C@@H]1O)N1Cc2ccccc2C1 [Example 1, ((2R,3S,4R,5R)-5-(4-aminopyrrolo[2,1-f][1,2,4]triazin-7-yl)-5-cyano-3,4-dihydroxytetrahydrofuran-2-yl)methyl ((R)-2-(isoindolin-2-yl)-3-(octadecyloxy)propyl) hydrogen phosphate] showed an EC50 [1] of 570 nM, an EC50 [2] of 3200 nM and a CC50 at 5 days [3] of 20000 nM.
In the case of CCCCCCCCCCCCCCCCCCOC[C@H](COP(=O)(O)OC[C@H]1O[C@@](C#N)(c2ccc3c(N)ncnn23)[C@H](O)[C@@H]1O)N(C)Cc1ccccc1 [Example 2, ((2R,3S,4R,5R)-5-(4-aminopyrrolo[2,1-f][1,2,4]triazin-7-yl)-5-cyano-3,4-dihydroxytetrahydrofuran-2-yl)methyl ((R)-2-(benzyl(methyl)amino)-3-(octadecyloxy)propyl) hydrogen phosphate], the EC50 [1] is reported as 5000 nM, the EC50 [2] is reported as 10000 nM and the CC50 at 5 days [3] is reported as 25000 nM.
With CCCCCCCCCCCCCCCCCCOC[C@H](COP(=O)(O)OC[C@H]1O[C@@](C#N)(c2ccc3c(N)ncnn23)[C@H](O)[C@@H]1O)N(Cc1ccc(F)c(Cl)c1)C(C)=O [Example 10, ((2R,3S,4R,5R)-5-(4-aminopyrrolo[2,1-f][1,2,4]triazin-7-yl)-5-cyano-3,4-dihydroxytetrahydrofuran-2-yl)methyl ((R)-2-(N-(3-chloro-4-fluorobenzyl)acetamido)-3-(octadecyloxy)propyl) hydrogen phosphate] the EC50 [1] was 55 nM and the EC50 [2] was 3600 nM.
Work on CCCCCCCCCCCCCCCCCCOC[C@H](COP(=O)(O)OC[C@H]1O[C@@](C#N)(c2ccc3c(N)ncnn23)[C@H](O)[C@@H]1O)N1Cc2ccccc2C1=O [Example 11, ((2R,3S,4R,5R)-5-(4-aminopyrrolo[2,1-f][1,2,4]triazin-7-yl)-5-cyano-3,4-dihydroxytetrahydrofuran-2-yl)methyl ((R)-3-(octadecyloxy)-2-(1-oxoisoindolin-2-yl)propyl) hydrogen phosphate] yielded an EC50 [1] of 47 nM and an EC50 [2] of 3800 nM.
CCCCCCCCCCCCCCCCSCCCOP(=O)(O)OC[C@H]1O[C@@](C#N)(c2ccc3c(N)ncnn23)[C@H](O)[C@@H]1O [Example 19, ((2R,3S,4R,5R)-5-(4-Aminopyrrolo[2,1-f][1,2,4]triazin-7-yl)-5-cyano-3,4-dihydroxytetrahydrofuran-2-yl)methyl (3-(hexadecylthio)propyl) hydrogen phosphate] gave an EC50 [1] of 210 nM and an EC50 [2] of 3400 nM.
CCCCCCCCCCCCCCCCOCCOP(=O)(O)OC[C@H]1O[C@@](C#N)(c2ccc3c(N)ncnn23)[C@H](O)[C@@H]1O [Example 20, ((2R,3S,4R,5R)-5-(4-Aminopyrrolo[2,1-f][1,2,4]triazin-7-yl)-5-cyano-3,4-dihydroxytetrahydrofuran-2-yl)methyl (2-(hexadecyloxy)ethyl) hydrogen phosphate] gave an EC50 [1] of 200 nM and an EC50 [2] of 3800 nM.
With CCCCCCCCCCCCCCCCCCOC[C@H](COCc1cc(F)cc(S(C)(=O)=O)c1)OP(=O)(O)OC[C@H]1O[C@@](C#N)(c2ccc3c(N)ncnn23)[C@H](O)[C@@H]1O [Example 33, ((2R,3S,4R,5R)-5-(4-aminopyrrolo[2,1-f][1,2,4]triazin-7-yl)-5-cyano-3,4-dihydroxytetrahydrofuran-2-yl)methyl ((R)-1-((3-fluoro-5-(methylsulfonyl)benzyl)oxy)-3-(octadecyloxy)propan-2-yl) hydrogen phosphate] the EC50 [1] was 120 nM.
Compound CCCCCCCCCCCCCCCCCCOC[C@H](Cc1ccccc1)OP(=O)(O)OC[C@H]1O[C@@](C#N)(c2ccc3c(N)ncnn23)[C@H](O)[C@@H]1O [Example 40, ((2R,3S,4R,5R)-5-(4-aminopyrrolo[2,1-f][1,2,4]triazin-7-yl)-5-cyano-3,4-dihydroxytetrahydrofuran-2-yl)methyl ((S)-1-(octadecyloxy)-3-phenylpropan-2-yl) hydrogen phosphate] has an EC50 [1] of 380 nM.
In the case of CCCCCCCCCCCCCCCCCCOC[C@H](COP(=O)(O)OC[C@H]1O[C@@](C#N)(c2ccc3c(N)ncnn23)[C@H](O)[C@@H]1O)OCc1cc(F)cc(C(=O)O)c1 [Example 44, 3-((((2R)-1-(((((2R,3S,4R,5R)-5-(4-aminopyrrolo[2,1-f][1,2,4]triazin-7-yl)-5-cyano-3,4-dihydroxytetrahydrofuran-2-yl)methoxy)(hydroxy)phosphoryl)oxy)-3-(octadecyloxy)propan-2-yl)oxy)methyl)-5-fluorobenzoic acid], the EC50 [1] is reported as 120 nM and the CC50 at 5 days [3] is reported as 25000 nM.
With CCCCCCCCCCCCCCCCCCOC[C@H](COP(=O)(O)OC[C@H]1O[C@@](C#N)(c2ccc3c(N)ncnn23)[C@H](O)[C@@H]1O)Oc1ccc(C#N)c(OC)c1F [Example 48, ((2R,3S,4R,5R)-5-(4-aminopyrrolo[2,1-f][1,2,4]triazin-7-yl)-5-cyano-3,4-dihydroxytetrahydrofuran-2-yl)methyl ((R)-2-(4-cyano-2-fluoro-3-methoxyphenoxy)-3-(octadecyloxy)propyl) hydrogen phosphate] the EC50 [1] was 17 nM and the CC50 at 5 days [3] was 160 nM.
Work on CCCCCCCCCCCCCCCCCCOC[C@H](COP(=O)(O)OC[C@H]1O[C@@](C#N)(c2ccc3c(N)ncnn23)[C@H](O)[C@@H]1O)Oc1cc(C)c(C#N)cc1F [Example 49, ((2R,3S,4R,5R)-5-(4-aminopyrrolo[2,1-f][1,2,4]triazin-7-yl)-5-cyano-3,4-dihydroxytetrahydrofuran-2-yl)methyl ((R)-2-(4-cyano-2-fluoro-5-methylphenoxy)-3-(octadecyloxy)propyl) hydrogen phosphate] yielded an EC50 [1] of 23 nM and a CC50 at 5 days [3] of 1100 nM.
Compound CCCCCCCCCCCCCCCCCCOC[C@H](COP(=O)(O)OC[C@H]1O[C@@](C#N)(c2ccc3c(N)ncnn23)[C@H](O)[C@@H]1O)OCc1cc(F)c(Cl)c(C#N)c1 [Example 50, ((2R,3S,4R,5R)-5-(4-aminopyrrolo[2,1-f][1,2,4]triazin-7-yl)-5-cyano-3,4-dihydroxytetrahydrofuran-2-yl)methyl ((R)-2-((4-chloro-3-cyano-5-fluorobenzyl)oxy)-3-(octadecyloxy)propyl) hydrogen phosphate] has an EC50 [1] of 24 nM and a CC50 at 5 days [3] of 640 nM.
Work on CCCCCCCCCCCCCCCCCCOC[C@H](COP(=O)(O)OC[C@H]1O[C@@](C#N)(c2ccc3c(N)ncnn23)[C@H](O)[C@@H]1O)OCc1cc(F)c(CCC)c(C#N)c1 [Example 51, ((2R,3S,4R,5R)-5-(4-aminopyrrolo[2,1-f][1,2,4]triazin-7-yl)-5-cyano-3,4-dihydroxytetrahydrofuran-2-yl)methyl ((R)-2-((3-cyano-5-fluoro-4-propylbenzyl)oxy)-3-(octadecyloxy)propyl) hydrogen phosphate] yielded an EC50 [1] of 100 nM and a CC50 at 5 days [3] of 6700 nM.
For CCCCCCCCCCCCCCCCCCOC[C@H](COP(=O)(O)OC[C@H]1O[C@@](C#N)(c2ccc3c(N)ncnn23)[C@H](O)[C@@H]1O)Oc1cc(OC)c(C#N)cc1F [Example 52, ((2R,3S,4R,5R)-5-(4-aminopyrrolo[2,1-f][1,2,4]triazin-7-yl)-5-cyano-3,4-dihydroxytetrahydrofuran-2-yl)methyl ((R)-2-(4-cyano-2-fluoro-5-methoxyphenoxy)-3-(octadecyloxy)propyl) hydrogen phosphate], the EC50 [1] was 17 nM and the CC50 at 5 days [3] was 370 nM.
CCCCCCCCCCCCCCCCCCOC[C@H](COP(=O)(O)OC[C@H]1O[C@@](C#N)(c2ccc3c(N)ncnn23)[C@H](O)[C@@H]1O)OCc1cc(F)c(C)c(C#N)c1 [Example 53, ((2R,3S,4R,5R)-5-(4-aminopyrrolo[2,1-f][1,2,4]triazin-7-yl)-5-cyano-3,4-dihydroxytetrahydrofuran-2-yl)methyl ((R)-2-((3-cyano-5-fluoro-4-methylbenzyl)oxy)-3-(octadecyloxy)propyl) hydrogen phosphate] showed an EC50 [1] of 25 nM and a CC50 at 5 days [3] of 430 nM.
CCCCCCCCCCCCCCCCCCOC[C@H](COP(=O)(O)OC[C@H]1O[C@@](C#N)(c2ccc3c(N)ncnn23)[C@H](O)[C@@H]1O)OCc1cc(C#N)c(Cl)c(OC)c1 [Example 54, ((2R,3S,4R,5R)-5-(4-aminopyrrolo[2,1-f][1,2,4]triazin-7-yl)-5-cyano-3,4-dihydroxytetrahydrofuran-2-yl)methyl ((R)-2-((4-chloro-3-cyano-5-methoxybenzyl)oxy)-3-(octadecyloxy)propyl) hydrogen phosphate] showed an EC50 [1] of 64 nM and a CC50 at 5 days [3] of 1300 nM.
With CCCCCCCCCCCCCCCCCCN(C)C(=O)[C@H](COP(=O)(O)OC[C@H]1O[C@@](C#N)(c2ccc3c(N)ncnn23)[C@H](O)[C@@H]1O)OCc1cc(F)cc(C#N)c1 [Example 56, ((2R,3S,4R,5R)-5-(4-aminopyrrolo[2,1-f][1,2,4]triazin-7-yl)-5-cyano-3,4-dihydroxytetrahydrofuran-2-yl)methyl ((S)-2-((3-cyano-5-fluorobenzyl)oxy)-3-(methyl(octadecyl)amino)-3-oxopropyl) hydrogen phosphate] the EC50 [1] was 13 nM and the CC50 at 5 days [3] was 200 nM.
In the case of CCCCCCCCCCCCCCCCOCCOP(=O)(O)OC[C@H]1O[C@@](C#N)(c2ccc3c(N)ncnn23)[C@H](O)[C@@H]1O [Example 66, [(2R,3S,4R,5R)-5-(4-Aminopyrrolo[2,1-f][1,2,4]triazin-7-yl)-5-cyano-3,4-dihydroxy-tetrahydrofuran-2-yl]methyl 2-hexadecoxyethyl hydrogen phosphate], the CC50 at 5 days [3] is reported as 29000 nM.
